Experiments:
[1] = tested on: Platelet aggregation induced by collagen suspension; assay: ex vivo inhibition of collagen-induced platelet aggregation after oral administration in rat; settings: 50 mg/kg (p.o) in rat, blood collected 2 hours after oral administration, vs vehicle control rats
Protocol: Blood samples were collected 2 hours after oral administration of the
compound to be tested or vehicle alone. Platelet rich plasmas were
obtained by centrifugation of the blood. Platelet aggregation was induced
by adding collagen suspension to the platelet rich plasma and was compare
with that observed with the platelet rich plasma from the control rats

[2] = tested on: collagen (Coll) induced platelet aggregation; assay: in vitro inhibition of collagen (Coll) induced platelet aggregation, aggregometer method of Born, rat platelet rich plasma; assay type: cell-based; settings: rat citrated platelet rich plasma, 50% inhibition
Protocol: (§1) The aggregometer method of Born [G. V. Born, Nature, 194, 927 (1962)] was used to assess the in vitro activity of the various compounds as to inhibition of adenosine diphosphate (ADP) and collagen (Coll) induced platelet aggregation. Platelet rich plasma (PRP) was separated by centrifugation from citrated (0.313%) rat blood.
(§2) A methanolic solution of the test compound was added to the PRP, then aggregation was induced by adding to the mixture of ADP solution containing CaCl2 or a collagen suspension prepared according to the method described by Ashida et al [S. Ashida and Y. Abiko, Thromb. Diath. Haemorrh., 30, 528 (1975)], and the optical density of the resulting mixture was determined. […] A dose response curve was drawn from the results obtained above and the effective concentration giving a 50% inhibition (EC50) was calculated.

[3] = blood pressure of normal rat after oral administration; assay type: in vivo; settings: 50 mg/kg (p.o) in rat; 5-6 hours after oral administration
Protocol: The blood pressure of normal rat was measured at 5-6 hours after the oral administration at a dose of 50 mg/kg.

[4] = tested on: adenosine diphosphate (ADP) induced platelet aggregation; assay: in vitro inhibition of adenosine diphosphate (ADP) induced platelet aggregation, aggregometer method of Born, rat platelet rich plasma; assay type: cell-based; settings: rat citrated platelet rich plasma, 50% inhibition
Protocol: as §1, §2

Row | EC50 [2] [µM] | EC50 [4] [µM] | SMILES | Inhibition of Platelet Aggregation ex vivo % Inhibition [1] [%] | Blood Pressure % Reduction [3]
1 | 0.8 | 5 | Cc1cccc2c1CN1CC(=O)NC1=N2 [BL-3459, 6-methyl-1,2,3,5-tetrahydroimidazo[2,1-b]quinazolin-2-one, reference compound] | 57 | 35 + 3%
2 | 1 | 5 | Cc1sc2c(c1C)CN1CC(=O)NC1=N2 [Compound 1, 6,7-dimethyl-1,2,3,5-tetrahydroimidazo[1,2-a]thieno[2,3-d]pyrimidin-2-one] | 84 | 5 ± 3%
3 | 15 | 19 | Cc1csc2c1CN1CC(=O)NC1=N2 [Compound 4] |  | 
4 | 1.9 | 4.2 | Cc1c(Cl)sc2c1CN1CC(=O)NC1=N2 [Compound 6] | 24 | 
5 | 0.1 | 5 | O=C1CN2Cc3c(sc4c3CCCC4)N=C2N1 [Compound 8, 1,2,3,5,6,7,8,9-octahydroimidazo[1,2-a][1]benzothieno[2,3-d]pyrimidin-2-one] | 57 | 8 ± 2%
6 | 15 | 20 | O=C1CN2Cc3c(sc4c3CCCCC4)N=C2N1 [Compound 9] |  | 
7 | 10 | 85 | O=C1CN2Cc3sccc3N=C2N1 [Compound 11] |  | 
8 | 3.5 | 17 | Cc1scc2c1CN1CC(=O)NC1=N2 [Compound 14] | 32 | 
9 | 2.2 | 3 | CCCc1c(CC)sc2c1CN1CC(=O)NC1=N2 [Compound 15] | 90 | 
10 | 0.08 | 0.58 | CCCc1sc2c(c1C)CN1CC(=O)NC1=N2 [Compound 16] | 60 | 
11 | 0.19 | 2 | CCCCCc1sc2c(c1C)CN1CC(=O)NC1=N2 [Compound 17] |  | 
12 | 0.6 | 48 | CC1C(=O)NC2=Nc3sc4c(c3CN21)CCCC4 (stereo not shown) [Compound 18] |  | 

Source: patent US4284773A, “1,2,3,5-Tetrahydroimidazothienopyrimidin-2-ones” (Daiichi Seiyaku Co., Ltd., priority 1978, dated 1981)
